# Source: patent US20220356174A1, “PYRIDIN-2-ONE COMPOUNDS USEFUL AS SMARCA2 ANTAGONISTS” (Epizyme, Inc., priority 2018, published 2022)
# Assays:
# H358 cells = assay: High-throughput proliferation (HTP) assay for H358 cells (CellTiter-Glo, 7 days); assay type: cell-based; conditions: Homo sapiens, NCI-H358, 168 h, read-out: H358 SMARCA2 IC50
# In short: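 Cells were plated at 1,000 cells/well in RPMI 1640 + 10% HI-FBS + 1% pen/strep on pre-dispensed compound and incubated 7 days at 37 °C, 5% CO2. Viability was read as ATP luminescence with CellTiter-Glo after 30 min at RT. DMSO served as 0% and 10 µM doxorubicin as 100% inhibition for EC50/IC50.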
# A549 cells = assay: High-throughput proliferation (HTP) assay for A549 cells (CellTiter-Glo, 7 days); assay type: cell-based; conditions: Homo sapiens, 168 h, read-out: A549 SMARCA2 IC50
# In short: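 A549 cells plated at 62.5 cells/well in F12K + 10% HI-FBS onto pre-dispensed compound, grown 7 days at 37° C., 5% CO2. Viability by CellTiter-Glo luminescence after 30 min at RT; EC50/IC50 from DMSO (0%) and 10 μM Doxorubicin (100%) inhibition controls.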
# SMARCA2 = molecular target: T1, SMARCA2 (Homo sapiens, UniProt P51531); assay: SMARCA2 FRET nucleosome remodeling activity assay; assay type: biochemical
# T1 construct: FLAG tag (YKDDDDK) (C); made in house; host or cells: Sf21 insect cells (baculovirus, pFastBacI)
# T1 sequence (P51531 with tags, fused parts or gaps): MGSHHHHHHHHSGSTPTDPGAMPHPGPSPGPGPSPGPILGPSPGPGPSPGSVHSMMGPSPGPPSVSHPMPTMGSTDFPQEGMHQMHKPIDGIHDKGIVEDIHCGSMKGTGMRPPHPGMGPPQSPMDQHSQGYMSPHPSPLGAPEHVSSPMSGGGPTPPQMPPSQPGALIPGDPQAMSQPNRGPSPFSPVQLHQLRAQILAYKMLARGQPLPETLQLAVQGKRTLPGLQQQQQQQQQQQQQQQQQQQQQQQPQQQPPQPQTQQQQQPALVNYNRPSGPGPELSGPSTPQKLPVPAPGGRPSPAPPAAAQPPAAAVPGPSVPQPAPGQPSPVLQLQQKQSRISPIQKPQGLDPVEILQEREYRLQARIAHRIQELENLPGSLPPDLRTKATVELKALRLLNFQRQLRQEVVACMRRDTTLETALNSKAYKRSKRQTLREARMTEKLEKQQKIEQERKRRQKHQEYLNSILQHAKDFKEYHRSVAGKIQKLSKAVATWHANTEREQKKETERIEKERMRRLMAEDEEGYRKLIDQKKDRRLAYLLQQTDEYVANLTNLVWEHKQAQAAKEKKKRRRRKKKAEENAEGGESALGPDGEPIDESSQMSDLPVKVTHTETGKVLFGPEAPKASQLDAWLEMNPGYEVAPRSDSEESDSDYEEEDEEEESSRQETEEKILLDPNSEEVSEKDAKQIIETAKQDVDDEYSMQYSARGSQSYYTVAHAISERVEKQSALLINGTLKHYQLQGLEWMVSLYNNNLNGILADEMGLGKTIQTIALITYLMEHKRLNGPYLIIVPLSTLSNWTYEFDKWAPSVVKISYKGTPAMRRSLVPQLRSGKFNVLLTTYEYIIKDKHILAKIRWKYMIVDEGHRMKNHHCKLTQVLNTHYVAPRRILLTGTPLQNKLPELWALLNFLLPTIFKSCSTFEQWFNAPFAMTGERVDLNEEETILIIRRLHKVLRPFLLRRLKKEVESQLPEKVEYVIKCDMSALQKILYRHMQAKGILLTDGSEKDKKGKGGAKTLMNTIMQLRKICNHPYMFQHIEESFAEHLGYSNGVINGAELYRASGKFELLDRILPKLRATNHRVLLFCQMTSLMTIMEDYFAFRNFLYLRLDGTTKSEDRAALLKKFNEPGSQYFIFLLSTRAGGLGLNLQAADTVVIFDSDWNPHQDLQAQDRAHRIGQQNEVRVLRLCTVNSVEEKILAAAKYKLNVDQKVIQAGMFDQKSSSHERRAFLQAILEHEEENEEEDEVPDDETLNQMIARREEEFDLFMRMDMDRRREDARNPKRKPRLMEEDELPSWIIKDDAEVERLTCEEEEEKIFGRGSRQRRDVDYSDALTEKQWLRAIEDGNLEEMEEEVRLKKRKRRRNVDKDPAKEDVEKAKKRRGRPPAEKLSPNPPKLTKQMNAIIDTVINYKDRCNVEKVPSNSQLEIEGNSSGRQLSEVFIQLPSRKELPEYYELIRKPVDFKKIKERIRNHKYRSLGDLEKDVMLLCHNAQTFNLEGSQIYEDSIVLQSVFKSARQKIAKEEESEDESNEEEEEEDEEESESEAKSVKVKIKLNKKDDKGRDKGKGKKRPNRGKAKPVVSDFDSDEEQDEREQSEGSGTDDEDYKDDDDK
IC50 (A549 cells),IC50 (SMARCA2),SMILES,IC50 (H358 cells)
0.682 µM,0.0471 µM,"O=C(Nc1cc(F)c(=O)n(CC(F)F)c1)c1cc(Cl)c(C(F)(F)F)s1 [Compound 298, 4-Chloro-N-(1-(2,2-difluoroethyl)-5-fluoro-6-oxo-1,6-dihydropyridin-3-yl)-5-(trifluoromethyl)thiophene-2-carboxamide]",> 10 µM
0.868 µM,0.0253 µM,N#Cc1sc(C(=O)Nc2cc(F)c(=O)n(CCF)c2)cc1Cl [Compound 139],

SMILES,IC50 (A549 cells),IC50 (SMARCA2),IC50 (H358 cells)
"N#Cc1cc(C(=O)Nc2cc(F)c(=O)n(CC(F)F)c2)sc1C(F)(F)F [Compound 82c, 4-cyano-N-[1-(2,2-difluoroethyl)-5-fluoro-6-oxopyridin-3-yl]-5-(trifluoromethyl)thiophene-2-carboxamide]",0.589 µM,,> 10 µM
